In the NIST ThermoML archive (doi:10.1021/je700546r):
“And” between values parts separate entries of the source, which are not always exact repeats. Identical values can stand only once.

Tests used:
[1] = molar heat capacity at constant pressure; details: 100 kPa, Small (less than 1 g) adiabatic calorimetry
[2] = for Triple point temperature: Adiabatic calorimetry
[3] = Molar enthalpy of transition or fusion; details: Crystal 1; Adiabatic calorimetry

ON=C1CCCCC1 [cyclohexanone oxime]
Details	molar heat capacity at constant pressure [J/K/mol]	vapor or sublimation pressure
[1], 5 K, Crystal 3	0.3674	–
[1], 10 K, Crystal 3	2.982	–
[1], 15 K, Crystal 3	7.554	–
[1], 20 K, Crystal 3	12.9	–
[1], 25 K, Crystal 3	18.36	–
[1], 30 K, Crystal 3	23.53	–
[1], 35 K, Crystal 3	28.21	–
[1], 40 K, Crystal 3	32.42	–
[1], 45 K, Crystal 3	36.26	–
[1], 50 K, Crystal 3	39.78	–
[1], 60 K, Crystal 3	45.91	–
[1], 70 K, Crystal 3	51.28	–
[1], 80 K, Crystal 3	56.24	–
[1], 90 K, Crystal 3	60.87	–
[1], 100 K, Crystal 3	65.47	–
[1], 110 K, Crystal 3	69.94	–
[1], 120 K, Crystal 3	74.33	–
[1], 130 K, Crystal 3	78.7	–
[1], 140 K, Crystal 3	83.1	–
[1], 150 K, Crystal 3	87.59	–
[1], 160 K, Crystal 3	92.16	–
[1], 170 K, Crystal 3	96.94	–
[1], 180 K, Crystal 3	102.1	–
[1], 190 K, Crystal 3	107.7	–
[1], 200 K, Crystal 3	113.9	–
[1], 210 K, Crystal 3	122.3	–
[1], 220 K, Crystal 3	132.6	–
[1], 230 K, Crystal 3	141.9	–
[1], 240 K, Crystal 3	150.7	–
[1], 250 K, Crystal 2	153.4	–
[1], 260 K, Crystal 2	163.4	–
[1], 270 K, Crystal 2	174.5	–
[1], 280 K, Crystal 2	184.4	–
[1], 290 K, Crystal 2	191.9	–
[1], 298.15 K, Crystal 2	196.2	–
[1], 300 K, Crystal 2	197.1	–
[1], 310 K, Crystal 1	192.8	–
[1], 320 K, Crystal 1	197.5	–
[1], 330 K, Crystal 1	203	–
[1], 340 K, Crystal 1	209	–
[1], 350 K, Crystal 1	215.2	–
[1], 360 K, Crystal 1	221.1	–
[1], 362.2 K, Crystal 1	222.4	–
[1], 362.2 K, Liquid	271.5	–
[1], 365 K, Liquid	273.1	–
[1], 370 K, Liquid	276	–
[2], 285.7 K, Crystal 2, Transpiration method	–	0.00078 kPa
[2], 288.11 K, Crystal 2, Knudsen effusion	–	0.001028 kPa
[2], 290 K, Crystal 2, Transpiration method	–	0.00118 kPa
[2], 292.6 K, Crystal 2, Transpiration method	–	0.00157 kPa
[2], 293.82 K, Crystal 2, Knudsen effusion	–	0.00186 kPa
[2], 293.87 K, Crystal 2, Knudsen effusion	–	0.001759 kPa
[2], 295.1 K, Crystal 2, Transpiration method	–	0.00215 kPa
[2], 298.1 K, Crystal 2, Transpiration method	–	0.00275 kPa
[2], 298.2 K, Crystal 2, Transpiration method	–	0.00302 kPa and 0.00293 kPa
[2], 298.77 K, Crystal 2, Knudsen effusion	–	0.003118 kPa
[2], 301.1 K, Crystal 2, Transpiration method	–	0.00396 kPa
[2], 302.9 K, Crystal 1, Transpiration method	–	0.005 kPa
[2], 303.73 K, Crystal 1, Knudsen effusion	–	0.005234 kPa
[2], 303.74 K, Crystal 1, Knudsen effusion	–	0.005145 kPa
[2], 305.4 K, Crystal 1, Transpiration method	–	0.00626 kPa
[2], 307.6 K, Crystal 1, Transpiration method	–	0.00806 kPa
[2], 308.7 K, Crystal 1, Knudsen effusion	–	0.00837 kPa
[2], 310.2 K, Crystal 1, Transpiration method	–	0.01034 kPa
[2], 313 K, Crystal 1, Transpiration method	–	0.0136 kPa
[2], 313.62 K, Crystal 1, Knudsen effusion	–	0.01375 kPa
[2], 315.3 K, Crystal 1, Transpiration method	–	0.01601 kPa
[2], 318 K, Crystal 1, Transpiration method	–	0.02155 kPa
[2], 320.3 K, Crystal 1, Transpiration method	–	0.02671 kPa
[2], 323.1 K, Crystal 1, Transpiration method	–	0.03364 kPa
[2], 323.32 K, Crystal 1, Knudsen effusion	–	0.03373 kPa
[2], 323.35 K, Crystal 1, Knudsen effusion	–	0.03472 kPa
[2], 325.4 K, Crystal 1, Transpiration method	–	0.04273 kPa
[2], 328 K, Crystal 1, Transpiration method	–	0.05312 kPa
[2], 330.4 K, Crystal 1, Transpiration method	–	0.06593 kPa
[2], 333.1 K, Crystal 1, Transpiration method	–	0.08234 kPa
[2], 338.2 K, Crystal 1, Transpiration method	–	0.1232 kPa
[2], 340.2 K, Crystal 1, Transpiration method	–	0.1376 kPa
[2], 343.3 K, Crystal 1, Transpiration method	–	0.1758 kPa
[2], 345.6 K, Crystal 1, Transpiration method	–	0.213 kPa
[2], 348.3 K, Crystal 1, Transpiration method	–	0.2639 kPa

[2], Liquid, Transpiration method
Details	vapor or sublimation pressure [kPa]
364.6 K	0.8624
365.7 K	0.8948
367.9 K	1.03
369.7 K	1.119
370.5 K	1.181
373.6 K	1.388
373.7 K	1.405
376.6 K	1.661
377.7 K	1.759
377.8 K	1.786
379.7 K	1.922
381.8 K	2.124
382.8 K	2.221
385.8 K	2.574
388.9 K	3.046
391.9 K	3.486
394.9 K	3.978

[2]
Details	Triple point temperature [K]
Crystal 1	362.2
Crystal 2	301.5
Crystal 3	241.5

Details	Molar enthalpy of transition or fusion [kcal/mol]
[3]	2.977
